Reference: paper PMC12396291, “DNA-encoded library screening uncovers potent DNMT2 inhibitors targeting a cryptic allosteric binding site” (iScience, 2025)
Entries after “also recorded” stand apart in the source; their conditions may differ.

What was measured:
[1] = molecular target: T1, DNMT2 (Homo sapiens, UniProt O14717); assay: MST with DEL hit-derived fluorescent tracers 6-8, DNMT2 varied; details: probe 100 nM instead of FTAD, read-out: probe binding affinity (MST, apparent KD)
T1 construct: Recombinant human DNMT2 (full-length); His-tag; made in house; host or cells: E. coli
T1 sequence (O14717 1-391): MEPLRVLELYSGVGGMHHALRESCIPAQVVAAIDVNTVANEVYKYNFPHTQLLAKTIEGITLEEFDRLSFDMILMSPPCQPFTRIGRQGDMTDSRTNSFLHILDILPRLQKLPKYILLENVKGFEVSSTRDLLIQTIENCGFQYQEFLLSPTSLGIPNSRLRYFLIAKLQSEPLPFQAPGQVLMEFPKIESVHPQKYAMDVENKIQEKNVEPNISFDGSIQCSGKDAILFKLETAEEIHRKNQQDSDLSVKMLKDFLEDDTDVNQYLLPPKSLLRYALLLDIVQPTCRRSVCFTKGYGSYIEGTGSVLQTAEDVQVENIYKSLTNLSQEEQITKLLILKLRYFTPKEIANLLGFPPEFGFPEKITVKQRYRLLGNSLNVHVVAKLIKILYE

[2] = molecular target: T1, DNMT2; assay: ^3H-based methyltransferase enzyme activity assay (^3H-SAM incorporation into tRNA^Asp); assay type: biochemical
Description: Enzymatic DNMT2 inhibition assays were carried out in 100 mM Tris-HCl, pH 8.0, 100 mM NH4OAc, 0.1 mM EDTA, 10 mM MgCl2, and 10 mM DTT as described previously.[3]^,[4] First, the tRNA^Asp substrate was heated to 75 °C for 5 min and cooled down to room temperature (RT) before it was added to the reaction mixture to a final concentration of 5 μM. The reaction mixture contained 250 nM DNMT2 and the ligand compounds at variable concentrations (5% DMSO). Enzymatic reactions were started by the addition of 0.9 μM SAM as a mixture of ^3H-SAM (Hartmann Analytics) resp. cold SAM (NEB) to a final activity of 0.025 μCi μL^−1. Enzyme assays were carried out for 30 min at 37 °C. As a negative control served the reaction mixture without DNMT2 and as a positive control the reaction mixture without test compound. After 30 min, aliquots of 8 μL were taken from the reaction mixture and spotted on Whatman glass microfiber filters (GF/C, 25 mm). The RNA was precipitated on the filters with 5% ice-cold TCA for 15 min. […] Scintillation was measured with a scintillation counter (TriCarb Liquid Scintillation Analyzer 4810 TR; measurement time of 1 min). For IC50-value determination, compounds were analyzed at a minimum of six different concentrations in triplicates. IC50-values were calculated, evaluated, and plotted in GraphPad Prism 8.0.1.

[3] = molecular target: T1, DNMT2; assay: MST displacement assay with fluorescent FTAD probe; assay type: binding; design: Fnorm (MST screening): unit not given here; details: for Fnorm (% displ.): FTAD displacement / Fnorm (MST screening): ligand 100 μM, FTAD probe
Description: Screening for ligand binding and evaluation of dose-response affinity profiles was performed via microscale thermophoresis (MST) as described previously.[42] The measurements were conducted with a Nanotemper Technologies Monolith NT.115 device. All samples were measured in Monolith standard capillaries at 25 °C. The acquisition mode was set to “Nano-Blue” with an excitation power of 30% and a medium MST power, while the system was controlled using the software MO.Control (version 1.6.1) and for evaluation MO.Affinity Analysis (version 2.3) was used. The samples contained 2 μM DNMT2, 100 nM FTAD (5-FAM-triazolyl-adenosyl-Dab) probe, and 1.3% DMSO in MST buffer (50 mM HEPES, 150 mM NaCl, 1 mM dithiothreitol (DTT), 0.1% PEG-8000, 0.05% polysorbate-20, pH 7.4).[42] All compounds were employed at a final concentration of 100 μM for the initial ligand screening.

[4] = molecular target: T1, DNMT2; assay: Isothermal titration calorimetry (ITC), direct titration; assay type: binding; details: direct titration at 25 °C; n.b. = no enthalpy signal observable
Description: The DNMT2 protein was purified via size exclusion chromatography eluting in isothermal titration calorimetry (ITC) buffer (50 mM sodium phosphate pH 8.0, 300 mM NaCl, 1 mM EDTA, 2 mM β-mercaptoethanol, 0.1% polysorbate-20) and directly used for measurements.[3] All compounds were dissolved in DMSO to a concentration of 5 mM and were then diluted in ITC buffer to a final concentration of 500 μM. DNMT2 was diluted to a final concentration of 50 μM with 10% DMSO to match the ligand stocks' DMSO concentration. For the ITC measurements, a MicroCal PEAQ-ITC Automated workstation (Malvern Panalytical) with a 200 μL Hastelloy cell and an injection syringe volume of 40 μL was used. All experiments were performed in triplicates at 25 °C unless otherwise noted. For each measurement, 19 compound injections (2 μL each) with an injection speed of 0.5 μL/s were added to the reaction cell containing DNMT2. The spacing time between sequential injections was 300 s, and the stirring speed was set to 750 rpm with a reference power of 42 μW. As control experiments, ligands were titrated into ITC buffer. Data analysis and fitting were carried out using the MicroCal PEAQ-ITC Analysis Software 1.21 and plotted in GraphPad Prism 8.0.1.

[5] = test system: MOLM-13, Huh-7 and MDA-MB-231 cells; assay: Cell viability assay, pre-cultivation with compound then doxorubicin; assay type: cell-based, human; details: for susceptibility to subsequent doxorubicin treatment (synergy): compound 50 μM, then doxorubicin
Description: Cell viability assays were conducted with MOLM-13 cells, Huh-7, MDA-MB-231, HEK293, and HCT MTase mutant cell lines (WT, knock-down DNMT2, and knock-down NSUN2) to investigate the DNMT2 inhibiting compounds’ cellular effect. Cells were cultured according to standard protocols: MOLM-13 (RPMI, 10% FBS, 1x Penicillin/Streptomycin, 37 °C, 5% CO2), Huh-7/MDA-MB-231/HEK293 (DMEM, 10% FBS, 1x Penicillin/Streptomycin, 37 °C, 5% CO2) and HCT (McCoys’s 5A Medium, 10% FBS, L-Glutamine, 1x Penicillin/Streptomycin, 37 °C, 5% CO2). Cell viability was assessed using Promega Cell Titer Glo assay kit (MOLM-13, Huh-7, MDA-MB-231, HEK293) or Lonza ViaLight Plus Cell Proliferation and Cytotoxicity BioAssay Kit (HCT cell lines). […] Then, the cell titer reagent was added to each well according to the manufacturer’s protocols, and luminescence was measured using a Tecan Spark 10M plate reader (MOLM-13, Huh-7, MDA-MB-231, HEK293) or Molecular Devices FlexStation (HCT cell lines).

[6] = test system: tRNA modifications (m^5C) in MOLM-13 cells; assay: LC-MS/MS tRNA modification analysis of treated cells; assay type: cell-based, human; details: 72 h; for m^5C reduction in tRNA: relative to DMSO
[7] = molecular target: T1, DNMT2; assay: Fluorescence polarization (FP) assay with probe 6; assay type: binding
Description: (§1) Fluorescence polarization (FP) measurements with RNA MTases and small-molecule fluorescent tracers were conducted in black Greiner 96-well half-area plates using a Tecan Spark 10M plate reader as described previously.[44] The reader was equipped with polarization filters coupled to a monochromator setup (λex = 480 nm, λem = 530 nm). For selectivity screening, reaction mixtures contained varying concentrations of recombinant enzyme (DNMT1, DNMT2, DNMT3A/3L, NSUN2, NSUN3, or NSUN6; preparation see below) and 10 nM DEL hit-derived probe 6 in MST buffer. For displacement experiments, 100 μM SAH or 10 μM tRNA^Asp were added from buffered stock solutions to the DNMT2-containing mixtures. All measurements were performed as triplicates. Polarization values (in mP) were calculated from polarization-specific parallel and orthogonal fluorescence intensities according to the Tecan in-built calculation routine. KD-values were calculated and plotted in GraphPad Prism 8.0.1.

[8] = Parallel artificial membrane permeation assay (PAMPA); assay type: in vitro ADME; details: 7 h incubation, duplicates
Description: To determine the passive permeability of selected DNMT2 ligands, a parallel artificial membrane permeation assay (PAMPA) was performed as described previously.[68] The experiment was performed in duplicates with Sigma-Aldrich MAIPNTR10 donor plates with 5 μL of an artificial membrane (1% w/v L-α-phosphatidylcholine in n-dodecane) per well. After incubation for 7 h, the acceptor solutions were evaluated by LC/MS (HP Agilent 1100 Series). The peak areas in the UV chromatogram (λ = 210 nm) were used to calculate the areas under the curve (AUCs).

[9] = molecular target: T2, DNMT3A/3L (UniProt Q9CWR8+Q9Y6K1); assay: FP selectivity assay with probe 6; assay type: binding, human; details: enzyme concentrations up to 20 μM
T2 construct: made in house; host or cells: E. coli
Description: as §1

[10] = molecular target: T3, NSUN6 (Homo sapiens, UniProt Q8TEA1); assay: FP selectivity assay with probe 6; assay type: binding; details: enzyme concentrations up to 20 μM
T3 construct: made in house; host or cells: E. coli
T3 sequence (Q8TEA1 1-469): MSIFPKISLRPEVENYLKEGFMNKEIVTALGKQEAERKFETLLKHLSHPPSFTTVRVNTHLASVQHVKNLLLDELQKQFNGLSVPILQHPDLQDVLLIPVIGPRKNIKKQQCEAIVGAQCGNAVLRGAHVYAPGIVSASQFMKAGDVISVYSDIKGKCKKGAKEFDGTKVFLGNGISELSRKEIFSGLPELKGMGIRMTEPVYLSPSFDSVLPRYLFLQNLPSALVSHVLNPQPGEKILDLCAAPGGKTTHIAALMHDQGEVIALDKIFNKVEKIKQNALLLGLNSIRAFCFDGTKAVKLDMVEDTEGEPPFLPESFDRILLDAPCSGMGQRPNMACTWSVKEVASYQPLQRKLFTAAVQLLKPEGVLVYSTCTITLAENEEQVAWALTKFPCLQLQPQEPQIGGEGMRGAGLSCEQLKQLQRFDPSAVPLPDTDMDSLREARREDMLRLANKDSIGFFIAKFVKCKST
Description: as §1

[11] = molecular target: T4, DNMT1 (Homo sapiens, UniProt P26358); assay: FP selectivity assay with probe 6; assay type: binding; details: enzyme concentrations up to 20 μM
T4 construct: purchased ActiveMotif 31404
T4 sequence (P26358 whole entry): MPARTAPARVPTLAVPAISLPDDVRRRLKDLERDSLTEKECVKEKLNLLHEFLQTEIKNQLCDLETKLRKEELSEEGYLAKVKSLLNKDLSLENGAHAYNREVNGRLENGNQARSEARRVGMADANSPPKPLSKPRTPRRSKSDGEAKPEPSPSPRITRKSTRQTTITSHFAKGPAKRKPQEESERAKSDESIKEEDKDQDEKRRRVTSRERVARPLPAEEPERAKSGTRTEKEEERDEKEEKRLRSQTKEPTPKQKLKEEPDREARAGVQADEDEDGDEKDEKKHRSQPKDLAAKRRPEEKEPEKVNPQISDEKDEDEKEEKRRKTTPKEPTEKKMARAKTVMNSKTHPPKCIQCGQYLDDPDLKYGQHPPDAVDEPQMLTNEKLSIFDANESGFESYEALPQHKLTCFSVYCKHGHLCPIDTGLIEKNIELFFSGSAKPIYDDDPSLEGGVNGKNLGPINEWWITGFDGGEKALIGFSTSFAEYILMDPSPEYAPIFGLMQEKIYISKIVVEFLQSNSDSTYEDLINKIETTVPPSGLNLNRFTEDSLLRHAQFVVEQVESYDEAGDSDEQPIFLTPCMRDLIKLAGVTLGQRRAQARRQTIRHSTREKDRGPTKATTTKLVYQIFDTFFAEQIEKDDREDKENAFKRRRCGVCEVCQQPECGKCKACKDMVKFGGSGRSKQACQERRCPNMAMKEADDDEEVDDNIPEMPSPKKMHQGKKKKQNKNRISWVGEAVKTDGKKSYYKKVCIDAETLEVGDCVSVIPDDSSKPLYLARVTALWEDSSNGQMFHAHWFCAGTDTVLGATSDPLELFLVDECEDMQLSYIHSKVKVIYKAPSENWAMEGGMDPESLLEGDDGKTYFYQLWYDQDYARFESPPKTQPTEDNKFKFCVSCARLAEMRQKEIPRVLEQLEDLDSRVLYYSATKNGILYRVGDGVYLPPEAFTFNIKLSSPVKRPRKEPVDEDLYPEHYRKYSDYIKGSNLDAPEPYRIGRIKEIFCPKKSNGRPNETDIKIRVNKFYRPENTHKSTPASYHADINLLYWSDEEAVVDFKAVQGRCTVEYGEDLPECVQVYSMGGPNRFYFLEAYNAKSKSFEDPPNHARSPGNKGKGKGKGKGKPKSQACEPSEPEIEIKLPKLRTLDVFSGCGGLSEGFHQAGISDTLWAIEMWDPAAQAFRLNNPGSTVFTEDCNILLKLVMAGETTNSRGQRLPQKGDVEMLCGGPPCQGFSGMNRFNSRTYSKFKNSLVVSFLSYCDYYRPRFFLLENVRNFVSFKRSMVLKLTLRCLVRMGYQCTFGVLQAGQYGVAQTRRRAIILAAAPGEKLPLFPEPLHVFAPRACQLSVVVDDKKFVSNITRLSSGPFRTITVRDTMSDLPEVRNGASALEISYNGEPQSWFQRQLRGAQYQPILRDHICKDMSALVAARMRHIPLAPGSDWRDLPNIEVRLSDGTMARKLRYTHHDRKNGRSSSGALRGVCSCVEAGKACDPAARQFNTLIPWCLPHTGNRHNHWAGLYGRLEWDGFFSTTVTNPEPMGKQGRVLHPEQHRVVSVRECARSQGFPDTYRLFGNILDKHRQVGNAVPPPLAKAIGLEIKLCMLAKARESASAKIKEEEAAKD
Description: as §1

[12] = molecular target: T5, NSUN2 (Homo sapiens, UniProt Q08J23); assay: FP selectivity assay with probe 6; assay type: binding; details: enzyme concentrations up to 20 μM
T5 construct: made in house; host or cells: E. coli
T5 sequence (Q08J23 whole entry): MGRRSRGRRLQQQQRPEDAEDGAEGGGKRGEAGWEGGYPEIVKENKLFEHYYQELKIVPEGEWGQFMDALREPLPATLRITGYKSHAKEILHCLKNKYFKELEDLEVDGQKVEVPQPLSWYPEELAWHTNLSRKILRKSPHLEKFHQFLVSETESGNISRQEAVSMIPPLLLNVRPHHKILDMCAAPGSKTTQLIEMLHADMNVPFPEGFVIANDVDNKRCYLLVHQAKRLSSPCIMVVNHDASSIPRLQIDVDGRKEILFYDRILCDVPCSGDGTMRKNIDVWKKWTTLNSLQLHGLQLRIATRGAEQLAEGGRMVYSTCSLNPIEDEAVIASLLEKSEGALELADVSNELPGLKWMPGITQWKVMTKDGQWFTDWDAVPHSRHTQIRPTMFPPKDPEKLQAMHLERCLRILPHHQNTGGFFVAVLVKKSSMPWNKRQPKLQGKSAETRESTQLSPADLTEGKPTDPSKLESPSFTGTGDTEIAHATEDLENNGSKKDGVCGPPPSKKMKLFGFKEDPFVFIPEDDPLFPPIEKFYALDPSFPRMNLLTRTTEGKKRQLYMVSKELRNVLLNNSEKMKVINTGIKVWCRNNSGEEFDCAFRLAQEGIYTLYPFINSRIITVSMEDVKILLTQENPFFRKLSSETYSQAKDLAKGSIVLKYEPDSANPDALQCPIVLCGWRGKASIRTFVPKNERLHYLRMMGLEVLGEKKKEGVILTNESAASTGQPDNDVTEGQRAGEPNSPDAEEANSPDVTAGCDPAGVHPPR
Description: as §1

[13] = molecular target: T6, NSUN3 (Homo sapiens, UniProt Q9H649); assay: FP selectivity assay with probe 6; assay type: binding; details: enzyme concentrations up to 20 μM
T6 construct: made in house
T6 sequence (Q9H649 1-340): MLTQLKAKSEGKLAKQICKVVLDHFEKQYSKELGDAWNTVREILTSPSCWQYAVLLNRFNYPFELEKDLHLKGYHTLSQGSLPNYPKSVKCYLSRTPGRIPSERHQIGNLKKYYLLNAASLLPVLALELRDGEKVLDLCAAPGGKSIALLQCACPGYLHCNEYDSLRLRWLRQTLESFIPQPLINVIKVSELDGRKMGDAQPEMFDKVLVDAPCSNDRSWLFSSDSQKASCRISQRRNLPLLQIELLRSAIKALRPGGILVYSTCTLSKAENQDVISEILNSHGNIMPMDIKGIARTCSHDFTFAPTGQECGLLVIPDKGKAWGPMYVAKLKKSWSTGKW
Description: as §1

CCc1ccc(C(=O)NCC2(C(=O)N[C@H](CC(=O)NCC(=O)NCCCCCCNC(=O)c3ccc(-c4c5ccc(=[N+](C)C)cc-5oc5cc(N(C)C)ccc45)c(C(=O)O)c3)Cc3c[nH]c4ccccc34)CC2)cc1 [Compound 8]
Kd [1]: 700 nM

CNC(=O)C(NC(=O)C(Cc1c[nH]c2cc(Cl)ccc12)NC(=O)C(CO)NCC(C)Cc1ccc2c(c1)OCO2)C1CCCCC1 (stereo not shown) [Compound 4]
IC50 [2]: 44400 ± 12900 nM
FTAD displacement in the MST assay ([3]; DEL hits, result in words): did not lead to FTAD displacement
Kd ([3]; FTAD probe 100 nM, 2 μM DNMT2, n.b. = no thermophoresis shift observable): 105000 ± 9000 nM
ITC (KD) [4]: n.b.

CCc1ccc(C(=O)NCC2(C(=O)NC(CC(=O)NCC(N)=O)Cc3ccc(C#N)cc3)CC2)cc1 (stereo not shown) [Compound 34]
Fnorm (% displ.): FTAD displacement [3]: 13%
Fnorm (MST screening) [3]: 879.4
susceptibility to subsequent doxorubicin treatment (synergy) [5]: did not lead to a synergistic reduction in viability
m^5C reduction in tRNA ([6]; MOLM-13, 50 μM): no reduction of m^5C in tRNA

Nc1ncnc2c1ncn2[C@@H]1O[C@H](CSCC[C@H](N)C(=O)O)[C@@H](O)[C@H]1O [SAH, S-adenosylhomocysteine, reference compound]
displacement of probe 6 from DNMT2 (FP) ([7]; SAH 100 μM or tRNA^Asp 10 μM added to DNMT2 2 μM): able to displace probe 6

CCc1ccc(C(=O)NCC2(C(=O)N[C@@H](CC(=O)NCC(N)=O)Cc3c[nH]c4ccccc34)CC2)cc1 [Compound 10]
Fnorm (% displ.): FTAD displacement [3]: 40%
Fnorm (MST screening) [3]: 903.3
Papp (PAMPA) [8]: failed to pass through the artificial membrane; also recorded: below detection limit

CCc1ccc(C(=O)NCC2(C(=O)N[C@H](Cc3c[nH]c4ccccc34)C(=O)NCC(N)=O)CC2)cc1 [Compound 30]
Fnorm (% displ.): FTAD displacement [3]: 5%
Fnorm (MST screening) [3]: 861.5
ITC (KD) [4]: n.b.

CCc1ccc(C(=O)NCC2(C(=O)N[C@@H](CC(=O)NCC(=O)N(C)C)Cc3ccccc3)CC2)cc1 [Compound 47]
Fnorm (% displ.): FTAD displacement [3]: 36%
Fnorm (MST screening) [3]: 901.0
Papp (PAMPA) [8]: failed to pass through the artificial membrane; also recorded: below detection limit

Cc1cccc(N(C)c2nc(N[C@H](C(=O)NCCCCCCNC(=O)CCCCC[N+]3=C(/C=C/C=C/C=C4/N(C)c5ccccc5C4(C)C)C(C)(C)c4ccccc43)[C@@H](C)OC(C)(C)C)nc(N3CCN(c4c(C)cccc4C)CC3)n2)c1 [Compound 7]
Kd [1]: 1360 nM

CCc1ccc(C(=O)NCC2(C(=O)N[C@H](CC(=O)NCC(=O)NCCCCCCNC(=O)c3ccc(-c4c5ccc(=N)c(S(=O)(=O)O)c-5oc5c(S(=O)(=O)O)c(N)ccc45)c(C(=O)O)c3)Cc3ccccc3)CC2)cc1 [Compound 6]
Kd [1]: 1650 nM
probe binding to DNMT3A/3L (FP) [9]: does not bind
probe binding to NSUN6 (FP) [10]: does not bind
probe binding to DNMT1 (FP) [11]: does not bind
probe binding to NSUN2 (FP) [12]: does not bind
probe binding to NSUN3 (FP) [13]: does not bind
fluorescence polarization of probe-DNMT2 complex ([7]; probe 6 with DNMT2 (enzyme-free buffer 5 mP)): 220 mP

CCc1ccc(C(=O)NCC2(C(=O)NC(CC(=O)NCC(N)=O)Cc3ccc(Cl)cc3)CC2)cc1 (stereo not shown) [Compound 16]
cellular viability after cultivation with compound alone ([5]; 50 μM, two passages of three days each): no observable reduction in cellular viability
susceptibility to subsequent doxorubicin treatment (synergy) [5]: made the cells more susceptible to the subsequent treatment with doxorubicin
change in RNA modifications ([6]; MOLM-13, 5 μM): too low to stimulate any significant change in RNA modifications
changes of other (non-m^5C) tRNA modifications ([6]; MOLM-13, 50 μM): only minor other modification changes were observed
m^5C reduction in tRNA ([6]; MOLM-13, 50 μM): ~25%
Papp (PAMPA) [8]: ~ 0.30 10^−6 cm/s
Papp at 7 h ([8]; PAMPA): 0.3 ×10⁻⁶ cm/s
